Laboratory results published in patent publication US20260200903A1, “PHARMACEUTICAL COMPOSITION FOR AMELIORATING MALIGNANT DISEASES” (KINKI UNIVERSITY, priority 2020, published 2026).

Columns and labels:
Assay type in all cases: cell-based
RR1 cells = assay: Cell death-inducing effect of rituximab in RR1 cells, trypan blue staining
Source text: Raji cells, a burkitt lymphoma cell line, were modified to be rituximab-resistant and named RR1 cells.
(§1) Referring to FIG. 7, the horizontal axis is the rituximab concentration (μg/mL) and the vertical axis is the cell viability (%). […] However, the cell viability was clearly higher in RR1 cells, confirming that they are resistant to rituximab.

KMS-28BM cells = assay: Cell death in KMS-28BM cells by each compound in combination with rituximab, trypan blue staining; details: 10 days with 0.1 M9, 0.01 μM M14/M15/M16, 0.5 μM M18/M19, then human serum and rituximab
Description: As a control, compounds untreated KMS-28BM cells were seeded in 75 cm^2 flasks and incubated for 10 days at 37° C. and 5% CO2. KMS-28BM cells were seeded into 75 cm^2 flasks and pre-cultured for 24 h. After incubation, KMS-28BM cells were treated with […], 0.01 μM M14, 0.01 μM M15, 0.01 μM M16, 0.5 μM M18, and 0.5 μM M19 at final concentrations, and incubated for 10 days at 37° C. and 5% CO2. This added amount is a concentration lower than the IC50 of the above compounds for KMS-28BM cells.
After 10 days of incubation, cells were seeded into 96-well plates, human serum and 10 µg/mL rituximab were added, and cell viability was determined by the trypan blue staining.
For controls, only 0.5% DMSO (diluted in PBS) used to dissolve the compounds was added.

Raji cells = assay: Cell death-inducing effect of rituximab in Raji cells, trypan blue staining; details: cell viability
Source text: as §1

## rituximab: an anti-CD20 monoclonal antibody
RR1 cells; RR1 cells, cell viability
  IC50 of RR1 cells to rituximab: 98 µg/mL
RR1 cells; ratio of IC50 RR1 / Raji
  resistance of RR1 cells to rituximab relative to Raji cells: approximately 809 times
KMS-28BM cells
  cell death induction compared to control: did not induce cell death
Raji cells
  IC50 of Raji cells to rituximab: 0.121 µg/mL
